This test can be described thus: Inhibition of p38 kinase.

The structures appear in SMILES notation.

By IC50 is commonly meant the midpoint of a concentration-inhibition curve. `Fc1ccc(-c2nc3[nH]ncc3c(-c3ccc(F)cc3)c2-c2ccncc2)cc1` yielded an IC50 of 0.161 µM.

Values taken from ChEMBL document CHEMBL1141453, “Dissection of the recognition properties of p38 MAP kinase. Determination of the binding mode of a new pyridinyl-heterocycle inhibitor family” (J Med Chem, 2007).
